Assay results: patent EP4631940A1, “COMPOUND TARGETING PAN-KRAS PROTEIN DEGRADATION AGENT AND USE THEREOF” (Betta Pharmaceuticals Co., Ltd., priority 2022, dated 2024)
Read-outs that look alike come from different tables or passages of the source.

Experiments:
AGS = test: Cell proliferation experiment (CellTiter-Glo); assay type: cell-based; settings: read-out: IC50(nM) AGS
in vitro [1] = settings: human, microsomes
in vitro [2] = settings: mouse, microsomes
in vitro [3] = settings: dog, microsomes
PK59 = test: Cell proliferation experiment (CellTiter-Glo); assay type: cell-based; settings: PK-59; PK59, KRAS mutation type G12D; 96 h incubation
KRAS G12D [4] = target: T1, KRAS G12D (Homo sapiens, UniProt P01116, G12D)
in vitro [5] = settings: rat, microsomes
KRAS G12D [6] = target: T1, KRAS G12D; test: cell-based; settings: AGS
SW620 = test: Cell proliferation experiment (CellTiter-Glo); assay type: cell-based; settings: read-out: IC50(nM) SW620
H358 = test: Cell proliferation experiment (CellTiter-Glo); assay type: cell-based; settings: Homo sapiens, NCI-H358; H358, KRAS mutation type G12C; 96 h incubation
[7] = Phase II metabolic stability in liver microsomes (UDPGA); assay type: in vitro ADME; settings: 0.5 mg/mL liver microsomes, Alamethicin
Experimental: (§1) Example 6 Study on Phase II Metabolic Stability of Compounds in Human, Rat, Mouse, and Dog Liver Microsomes
(§2) Experimental Method: A diluted solution containing 0.5 mg/mL liver microsomes with K-buffer and MgCl2 was prepared: Table 8
(§3) 358 µL of the diluted liver microsome solution prepared in Table 8 above was added to the pre-set wells of the incubation plate, labeled as the incubation plate. 2 µL of compound working solution (400 µM) (final concentration of DMSO ≤ 0.5%) was added. The incubation plate was placed in a 37°C constant temperature shaker and pre-incubated for 5-10 min. Then, 40 µL of UDPGA (20 mM) was added to the incubation plate to initiate the reaction, and timing started. At each predetermined time point (0, 5, 15, 60 min), 50 µL of samples were taken from the incubation plate and added to the precipitation plate containing 200 µL of internal standard. Samples were mixed thoroughly, centrifuged at 4°C and 5000 rpm for 10 minutes. The supernatant after centrifugation was added to pre-added ultrapure water at an appropriate ratio, mixed thoroughly on a shaker at room temperature, and subjected to LC-MS/MS analysis.
(§4) Data processing: The peak areas of the analyte and the internal standard in samples were measured at different time points. The peak area ratio of the analyte to the internal standard at non-zero time points compared to the peak area ratio of the analyte to the internal standard in the 0 min sample was used to calculate the remaining percentage of the parent drug.

[8] = PK study in ICR mice (whole blood); assay type: in vivo; settings: Female ICR mice, IV 1 mg/kg; for AUC(0-t) / half-life / C0: mouse; for C0: read-out: C0
Experimental: Example 8 PK Study of Compound in ICR Mice (whole blood)
The compound was mixed with the vehicle (10% DMSO / 5% Solutol HS 15 / 85% saline), vortexed, and sonicated to prepare a clear solution at 0.2 mg/mL. Female ICR mice aged 6 to 7 weeks (non-fasted) were intravenously administered the compound. Whole blood was collected at specified time points. Drug concentration was analyzed by LC-MS/MS, and pharmacokinetic parameters were calculated using Phoenix WinNonlin software (Pharsight Corporation, USA). Table 11 Mouse PK Data for Intravenous Compound Monotherapy

[9] = Phase II metabolic stability in liver microsomes (UDPGA); assay type: in vitro ADME, Human; settings: for 60 minutes remaining percentage % Human: 0.5 mg/mL liver microsomes, Alamethicin; for metabolism by UGT in human liver microsomes: 60 min
Experimental: as §1, §2, §3, §4

[10] = Metabolic stability in liver microsomes (NADPH)
[11] = Metabolic stability in liver microsomes (NADPH); remark: listed apart in the source
[12] = Metabolic stability in liver microsomes (NADPH); remark: listed apart in the source
[13] = Metabolic stability in liver microsomes (NADPH); remark: listed apart in the source

T1 sequence (P01116 1-188 isoform P01116-2 G12D): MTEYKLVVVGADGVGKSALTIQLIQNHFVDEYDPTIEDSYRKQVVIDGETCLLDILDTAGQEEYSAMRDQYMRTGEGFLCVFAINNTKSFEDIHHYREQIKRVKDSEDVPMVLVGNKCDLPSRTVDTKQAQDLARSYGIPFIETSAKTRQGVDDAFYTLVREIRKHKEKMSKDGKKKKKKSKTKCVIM

Row | Molecule | IC50 (AGS; Homo sapiens, AGS, 96 h) [nM] | microsomal CLint (in vitro [1]) [µL/min/mg] | microsomal CLint (in vitro [2]) [µL/min/mg] | microsomal CLint (in vitro [3]) [µL/min/mg] | IC50 (PK59) [nM] | DC50 (KRAS G12D [4]) [nM] | microsomal CLint (in vitro [5]) [µL/min/mg] | Dmax (KRAS G12D [6]) [%] | IC50 (SW620; Homo sapiens, SW-620, 96 h) [nM] | IC50 (H358) [nM] | 60 minutes remaining percentage % Dog [7] [%] | 60 minutes remaining percentage % Mouse [7] [%] | 60 minutes remaining percentage % Rat [7] [%] | 60 minutes remaining percentage % Human [9] [%] | other results
1 | CCc1c(F)ccc2cc(O)cc(-c3ncc4c(N5CCC[C@@](C)(O)C5)nc(OCC5(CN6CCC(Oc7ccc(-c8cn([C@H](C(=O)N9C[C@H](O)C[C@H]9C(=O)N[C@@H](C)c9ccc(-c%10scnc%10C)cc9)C(C)C)nn8)nc7)CC6)CC5)nc4c3F)c12 [Compound 117] | 13 | 8.8 | 10.1 | 6.6 | 18.5 | 7.5 | 11.3 | 95 | 47 |  |  |  |  |  | 
2 | CCc1c(F)ccc2cc(O)cc(-c3ncc4c(N5CCC[C@@](C)(O)C5)nc(OCC5(CN6CCC7(CC6)CC(c6cn([C@H](C(=O)N8C[C@H](O)C[C@H]8C(=O)N[C@@H](C)c8ccc(-c9scnc9C)cc8)C(C)C)nn6)C7)CC5)nc4c3F)c12 [Compound 71] | 18 | 5.9 | 9.8 | 6.5 |  | 20 | 1.1 | 95 | 85 | 39 | 108 | 93 | 75.4 | 94.6 | Cl_obs [8]: 16.3 mL/min/kg; Vss_obs [8]: 1.45 L/kg; AUC(0-t) [8]: 1030 ng·h/mL; half-life [8]: 6.08 h; C0 [8]: 5560 ng/mL; metabolism by UGT in human liver microsomes [9]: not metabolized or are minimally metabolized
3 | CCc1c(F)ccc2cc(O)cc(-c3ncc4c(N5CCC[C@@](C)(O)C5)nc(OCC5(CN6CCC(Oc7ccc(-c8cn([C@H](C(=O)N9C[C@H](O)C[C@H]9C(=O)N[C@@H](CO)c9ccc(-c%10ccnn%10CC)cc9)C(C)C)nn8)cn7)CC6)CC5)nc4c3F)c12 [Compound 160] | 14 |  |  |  | 19.5 | 2 |  | 95 | 88 | 17 |  |  |  |  | 
4 | CCc1c(F)ccc2cc(O)cc(-c3ncc4c(N5CCC[C@@](C)(O)C5)nc(OCC5(CN6CCN(C78CC(c9cn([C@H](C(=O)N%10C[C@H](O)C[C@H]%10C(=O)N[C@@H](C)c%10ccc(-c%11scnc%11C)cc%10)C(C)C)nn9)(C7)C8)CC6)CC5)nc4c3F)c12 [Compound 149, (2S,4R)-1-((S)-2-(4-(3-(4-((1-(((7-(8-ethyl-7-fluoro-3-hydroxynaphthalen-1-yl)-8-fluoro-4-((R)-3-hydroxy-3-methylpiperidin-1-yl)pyrido[4,3-d]pyrimidin-2-yl)oxy)methyl)cyclopropyl)methyl)piperazin-1-yl)bicyclic[1.1.1]pent-1-yl)-1H-1,2,3-triazol-1-yl)-3-methylbutanoyl)-4-hydroxy-N-( (S)-1-(4-(4-methylthiazol-5-yl)phenyl)ethyl)pyrrolidine-2-carboxamide] | 15 |  |  |  | 57 | 7.6 |  | 95 |  |  |  |  |  |  | 
5 | C=C1CN2[C@H](COC(=O)N3CCC(Cc4cn([C@H](C(=O)N5C[C@H](O)C[C@H]5C(=O)N[C@@H](C)c5ccc(-c6scnc6C)cc5)C(C)C)nn4)CC3)CC[C@@]2(COc2nc(N3CCC[C@@](C)(O)C3)c3cnc(-c4cc(O)cc5ccc(F)c(CC)c45)c(F)c3n2)C1 [Compound 141, ((3S,7aS)-7a-(((7-(8-ethyl-7-fluoro-3-hydroxynaphthalen-1-yl)-8-fluoro-4-((R)-3-hydroxy-3-methylpiperidin-1-yl)pyrido[4,3-d]pyrimidin-2-yl)oxy)methyl)-6-methylenehexahydro-1H-pyrrolizin-3-yl)methyl 4-((1-((S)-1-((2S,4R)-4-hydroxy-2-(((S)-1-(4-(4-methylthiazol-5-yl)phenyl)ethyl)carbamoyl)pyrrolidin-1-yl)-3-methyl-1-oxobutan-2-yl)-1H-1,2,3-triazol-4-yl)methyl)piperidine-1-carboxylate] | 31 |  |  |  |  |  |  |  | 250 |  |  |  |  |  | microsomal CLint at 1 µM ([10]; rat, liver microsomes): 3.9 µL/min/mg; microsomal CLint at 1 µM ([11]; dog, liver microsomes): 12.9 µL/min/mg; microsomal CLint at 1 µM ([12]; human, liver microsomes): 21.2 µL/min/mg; microsomal CLint at 1 µM ([13]; mouse, liver microsomes): 12.1 µL/min/mg
6 | ((7-(8-ethyl-7-fluoro-3-hydroxynaphthalen-1-yl)-8-fluoro-4-(R)-3-hydroxy-3-methylpiperidin-1-yl)pyrido[4,3-d]pyrimidin-2-yl)oxy)methyl)-6-methylenehexahydro-1H-pyrrolizin-3-yl)methyl 2-(1-(S)-1-(2S,4R)-4-hydroxy-2-(S)-1-(4-(4-methylthiazol-5-yl)phenyl)ethylcarbamoyl)pyrrolidi n-1-yl)-3-methyl-1-oxobutan-2-yl)-1H-1,2,3-triazol-4-yl)-7-azaspiro[3.5]nonane-7-carboxylate [Compound 127] |  |  |  |  |  |  |  |  |  |  |  |  |  |  | The in vitro intrinsic clearance in liver microsomes (CLint, in vitro, µL/min/mg protein) Rat ([10]; Rat, 0.5 mg/mL liver microsomes, NADPH, 37°C): 15.6 µL/min/mg protein; The in vitro intrinsic clearance in liver microsomes (CLint, in vitro, µL/min/mg protein) Dog ([11]; Dog, 0.5 mg/mL liver microsomes, NADPH, 37°C): 31.5 µL/min/mg protein; IC50 (AGS): 47 nM; The in vitro intrinsic clearance in liver microsomes (CLint, in vitro, µL/min/mg protein) Human ([12]; Human, 0.5 mg/mL liver microsomes, NADPH, 37°C): 52.8 µL/min/mg protein; The in vitro intrinsic clearance in liver microsomes (CLint, in vitro, µL/min/mg protein) Mouse ([13]; Mouse, 0.5 mg/mL liver microsomes, NADPH, 37°C): 42.4 µL/min/mg protein; IC50 (SW620): 223 nM
7 | CCc1c(F)ccc2cc(O)cc(-c3ncc4c(N5CCC[C@@](C)(O)C5)nc(OCC5(CN6CCC(c7ccc(-c8cn([C@H](C(=O)N9C[C@H](O)C[C@H]9C(=O)N[C@@H](C)c9ccc(-c%10scnc%10C)cc9)C(C)C)nn8)cc7)CC6)CC5)nc4c3F)c12 [Compound 133] | 13 | 7.4 | 8 | 9.3 |  | 17 | 7.2 | 95 | 74 | 48 |  |  |  |  | Cl_obs [8]: 14.2 mL/min/kg; Vss_obs [8]: 2.49 L/kg; AUC(0-t) [8]: 1200 ng·h/mL; half-life [8]: 5.77 h; C0 [8]: 2840 ng/mL
8 | C=C1CN2[C@H](COCc3ccc(-c4cn([C@H](C(=O)N5C[C@H](O)C[C@H]5C(=O)N[C@@H](C)c5ccc(-c6scnc6C)cc5)C(C)C)nn4)cc3)CC[C@@]2(COc2nc(N3CCC[C@@](C)(O)C3)c3cnc(-c4cc(O)cc5ccc(F)c(CC)c45)c(F)c3n2)C1 [Compound 122] | 28 | 46.4 | 24.8 | 53 |  | 22 | 8.5 | 95 | 87 |  | 99.4 | 105 | 96.5 | 76.9 | 
9 | CCc1c(F)ccc2cc(O)cc(-c3ncc4c(N5CCC[C@@](C)(O)C5)nc(OCC5(CN6CCC(COc7ccc(-c8cn([C@H](C(=O)N9C[C@H](O)C[C@H]9C(=O)N[C@@H](C)c9ccc(-c%10scnc%10C)cc9)C(C)C)nn8)cc7)CC6)CC5)nc4c3F)c12 [Compound 69] | 14 | 9.8 | 7.9 | 16.4 |  | 25 | 4.6 | 95 | 34 | 42 | 90.6 | 92 | 99 | 98.4 | metabolism by UGT in human liver microsomes [9]: not metabolized or are minimally metabolized
